# Assay results from patent publication US10201510B2, “Compositions and methods for treatment of neurological symptoms associated with alcohol-withdrawal and for convulsive seizure” (Oregon Health & Science University, priority 2005, dated 2019).
# Assays:
# [1] = tested on: withdrawal seizures in alcohol-dependent mice; experiment: Predicted anti-seizure activity; assay type: in vivo, mouse; design: key: la = long-acting; The ++ farnesol activity was arbitrary; settings: for Predicted anti-seizure activity: long-acting (la): duration flag in brackets
# L-type Ca^2+ channel = biological target: T1, L-type Ca^2+ channel (Mus musculus, UniProt Q01815); experiment: Reversibility of inhibition of L-type Ca^2+ channel mediated arterial contraction after wash-out
# T1 construct: KCl-induced contraction in isolated arteries; from tissue; host or cells: mouse mesenteric arteries
# Description: (§1) Contractions obtained after 30 min. incubation with the test compounds (left portion of graph), and after a 60-min. wash-out (right portion of graph).
# (§2) Moreover, farnesylamine is likely to be metabolized through pathways different from those involved in farnesol clearance.
# [2] = biological target: T2, human recombinant monoamine oxidase A (Homo sapiens, UniProt P21397); experiment: Monoamine oxidase substrate test; assay type: in vitro ADME; settings: rat liver mitochondrial membranes and human recombinant monoamine oxidase A and B
# T2 sequence (P21397 1-527): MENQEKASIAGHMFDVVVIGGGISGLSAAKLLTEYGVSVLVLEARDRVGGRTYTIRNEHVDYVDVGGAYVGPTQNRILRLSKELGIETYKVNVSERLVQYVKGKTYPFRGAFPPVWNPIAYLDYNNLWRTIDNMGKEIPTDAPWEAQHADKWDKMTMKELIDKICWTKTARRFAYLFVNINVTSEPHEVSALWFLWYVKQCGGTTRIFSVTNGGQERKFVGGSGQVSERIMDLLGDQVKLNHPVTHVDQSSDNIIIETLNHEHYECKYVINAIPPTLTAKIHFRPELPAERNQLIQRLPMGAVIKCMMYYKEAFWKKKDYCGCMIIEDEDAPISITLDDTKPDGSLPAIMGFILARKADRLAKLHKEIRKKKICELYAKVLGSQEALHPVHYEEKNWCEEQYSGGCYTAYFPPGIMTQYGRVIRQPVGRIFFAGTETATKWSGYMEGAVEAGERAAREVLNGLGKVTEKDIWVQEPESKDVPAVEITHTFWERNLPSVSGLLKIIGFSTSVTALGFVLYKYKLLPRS
# Text: as §2
# [3] = biological target: T3, smooth muscle voltage-gated, L-type (Cav1.2 or α1C subunit) Ca^2+ channels (Mus musculus, UniProt Q01815); experiment: KCl-induced contraction in isolated arteries; settings: FIG. 5 / FIG. 6 (25 μM)
# T3 construct: KCl-induced contraction in isolated arteries; from tissue; host or cells: mouse mesenteric arteries
# Description: as §1
# (§3) To identify compounds with enhanced L-type Ca^2+ channel blocker activity, several compounds were either purchased or synthesized, and then tested for their ability to inhibit: (1) KCl-induced contraction in isolated arteries; (2) KCl-induced Ca^2+ signaling in fura-2 loaded arteries; and (3) KCl-induced Ca^2+ signaling in fura-2 loaded PC12 cells, all using art-recognized methods established in the applicants' laboratories (Roullet, 1993, 1994, 1995, 1997; De Lima, 1999). Arteries express smooth muscle voltage-gated, L-type (Cav1.2 or α1C subunit) Ca^2+ channels, whereas PC12 cells constitutively express the neuronal voltage-gated, L-type (Cav1.3) α1D subunit (Ertel, 2000).
# Storage stability = assay type: physicochemical; settings: −20° C., pure form or ethanol solutions (typically 25 mM)
# Description: According to the present invention, the synthesis of geranylresorcinol (GR) (4) is based on the condensation of geranyl bromide (1) and 3-hydroxyphenyl benzoate (2), followed by alkaline cleavage of the formed ester (3). The method generates pure GR with an overall yield of 40%. The compound is stable when stored at −20° C. either in its pure form or in ethanol solutions (typically prepared at 25 mM). Long-term storage may be associated with some darkening of the product, as typically observed with electron-rich phenols, but it is not associated with significant loss of activity (on arteries).
# microsomal FolDH = experiment: Recognition by microsomal FolDH; assay type: in vitro ADME
# ADH [4] = experiment: Metabolism / substrate recognition by ADH; assay type: in vitro ADME
# [5] = biological target: T4, neuronal voltage-gated, L-type (Cav1.3) α1D subunit Ca^2+ channel (Rattus norvegicus, UniProt P27732); experiment: KCl-induced Ca^2+ signaling in fura-2 loaded PC12 cells; assay type: cell-based
# T4 construct: KCl-induced intracellular Ca^2+ signaling in non-NGF treated PC12 cells loaded with fura-2; endogenous in cells; host or cells: PC12 cells (non-NGF treated)
# T4 sequence (P27732 whole entry): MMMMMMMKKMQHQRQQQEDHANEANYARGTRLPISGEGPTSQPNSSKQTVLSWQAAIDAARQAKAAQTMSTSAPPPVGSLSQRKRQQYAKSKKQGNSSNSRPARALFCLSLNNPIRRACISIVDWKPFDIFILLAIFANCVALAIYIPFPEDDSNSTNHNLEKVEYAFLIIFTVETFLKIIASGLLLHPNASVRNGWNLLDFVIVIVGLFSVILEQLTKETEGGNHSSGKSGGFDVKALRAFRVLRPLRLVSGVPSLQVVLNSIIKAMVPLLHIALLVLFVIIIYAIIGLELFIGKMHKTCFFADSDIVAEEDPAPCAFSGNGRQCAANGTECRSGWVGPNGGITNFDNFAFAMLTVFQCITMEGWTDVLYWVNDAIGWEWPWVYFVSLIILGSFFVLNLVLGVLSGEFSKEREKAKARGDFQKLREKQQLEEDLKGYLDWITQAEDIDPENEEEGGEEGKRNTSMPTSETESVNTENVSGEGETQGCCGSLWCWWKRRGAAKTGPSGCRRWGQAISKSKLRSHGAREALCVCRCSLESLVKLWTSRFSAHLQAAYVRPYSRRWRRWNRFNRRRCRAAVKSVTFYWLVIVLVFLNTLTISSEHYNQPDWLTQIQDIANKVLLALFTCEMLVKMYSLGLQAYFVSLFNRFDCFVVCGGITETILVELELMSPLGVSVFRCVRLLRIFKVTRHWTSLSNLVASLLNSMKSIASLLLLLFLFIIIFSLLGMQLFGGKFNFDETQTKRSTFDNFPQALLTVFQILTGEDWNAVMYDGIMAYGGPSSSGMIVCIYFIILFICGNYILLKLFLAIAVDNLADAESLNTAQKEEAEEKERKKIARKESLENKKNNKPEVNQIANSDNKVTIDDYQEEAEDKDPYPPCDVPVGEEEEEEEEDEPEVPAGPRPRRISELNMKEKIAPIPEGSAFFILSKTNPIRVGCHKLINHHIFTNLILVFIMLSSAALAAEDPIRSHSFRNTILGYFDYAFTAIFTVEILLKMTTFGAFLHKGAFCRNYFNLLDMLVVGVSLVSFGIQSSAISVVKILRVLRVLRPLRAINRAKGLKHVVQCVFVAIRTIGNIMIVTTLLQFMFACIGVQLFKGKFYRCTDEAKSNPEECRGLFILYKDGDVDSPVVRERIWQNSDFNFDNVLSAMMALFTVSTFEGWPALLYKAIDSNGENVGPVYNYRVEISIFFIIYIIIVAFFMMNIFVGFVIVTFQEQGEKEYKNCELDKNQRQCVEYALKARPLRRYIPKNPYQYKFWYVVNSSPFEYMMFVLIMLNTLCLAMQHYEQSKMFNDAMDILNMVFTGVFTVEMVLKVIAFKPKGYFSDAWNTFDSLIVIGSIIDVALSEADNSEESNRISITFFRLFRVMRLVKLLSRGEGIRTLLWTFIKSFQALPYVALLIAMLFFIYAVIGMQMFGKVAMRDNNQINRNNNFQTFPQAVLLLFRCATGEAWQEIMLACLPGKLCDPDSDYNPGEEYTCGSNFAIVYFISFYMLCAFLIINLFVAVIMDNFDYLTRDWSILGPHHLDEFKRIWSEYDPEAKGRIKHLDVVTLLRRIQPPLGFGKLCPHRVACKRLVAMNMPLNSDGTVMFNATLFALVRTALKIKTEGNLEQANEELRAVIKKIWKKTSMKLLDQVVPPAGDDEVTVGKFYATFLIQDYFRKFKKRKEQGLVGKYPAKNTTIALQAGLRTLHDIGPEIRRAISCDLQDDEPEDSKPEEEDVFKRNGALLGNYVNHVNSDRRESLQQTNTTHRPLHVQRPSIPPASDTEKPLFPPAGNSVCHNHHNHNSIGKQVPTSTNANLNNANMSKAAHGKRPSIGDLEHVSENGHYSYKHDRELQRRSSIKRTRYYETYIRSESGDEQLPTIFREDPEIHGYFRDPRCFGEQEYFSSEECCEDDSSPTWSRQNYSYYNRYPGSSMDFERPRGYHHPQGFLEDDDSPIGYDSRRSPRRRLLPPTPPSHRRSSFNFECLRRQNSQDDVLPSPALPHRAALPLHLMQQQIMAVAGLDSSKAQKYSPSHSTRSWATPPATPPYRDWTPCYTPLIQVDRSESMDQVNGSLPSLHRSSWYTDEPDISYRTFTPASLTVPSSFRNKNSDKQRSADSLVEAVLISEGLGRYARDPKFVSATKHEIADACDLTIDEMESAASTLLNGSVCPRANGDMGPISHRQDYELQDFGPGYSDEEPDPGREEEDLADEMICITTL
# T4 sequence (P54290 25-944 partner limits assumed): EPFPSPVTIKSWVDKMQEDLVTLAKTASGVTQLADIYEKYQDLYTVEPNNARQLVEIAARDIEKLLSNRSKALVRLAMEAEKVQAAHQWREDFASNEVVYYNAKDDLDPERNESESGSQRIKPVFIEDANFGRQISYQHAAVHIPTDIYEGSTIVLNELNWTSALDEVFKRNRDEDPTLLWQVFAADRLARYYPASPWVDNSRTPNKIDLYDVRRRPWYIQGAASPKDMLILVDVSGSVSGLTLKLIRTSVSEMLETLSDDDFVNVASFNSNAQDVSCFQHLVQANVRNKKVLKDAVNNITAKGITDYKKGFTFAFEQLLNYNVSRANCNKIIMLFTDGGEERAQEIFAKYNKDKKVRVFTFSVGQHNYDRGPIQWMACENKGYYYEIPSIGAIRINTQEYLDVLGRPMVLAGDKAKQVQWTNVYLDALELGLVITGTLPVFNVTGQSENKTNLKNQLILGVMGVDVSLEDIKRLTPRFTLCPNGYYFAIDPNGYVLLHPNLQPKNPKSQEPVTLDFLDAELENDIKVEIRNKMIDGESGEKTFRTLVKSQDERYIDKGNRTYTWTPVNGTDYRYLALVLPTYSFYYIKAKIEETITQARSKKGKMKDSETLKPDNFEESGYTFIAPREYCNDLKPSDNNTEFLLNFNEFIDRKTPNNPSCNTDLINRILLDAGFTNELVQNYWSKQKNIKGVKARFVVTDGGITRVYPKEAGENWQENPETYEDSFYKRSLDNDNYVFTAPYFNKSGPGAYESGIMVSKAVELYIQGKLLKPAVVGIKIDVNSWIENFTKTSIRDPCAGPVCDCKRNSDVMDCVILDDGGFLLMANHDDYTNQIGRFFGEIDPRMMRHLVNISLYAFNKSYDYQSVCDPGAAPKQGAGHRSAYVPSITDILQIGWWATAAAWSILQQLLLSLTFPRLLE
# T4 sequence (P54290 945-1091 partner limits assumed): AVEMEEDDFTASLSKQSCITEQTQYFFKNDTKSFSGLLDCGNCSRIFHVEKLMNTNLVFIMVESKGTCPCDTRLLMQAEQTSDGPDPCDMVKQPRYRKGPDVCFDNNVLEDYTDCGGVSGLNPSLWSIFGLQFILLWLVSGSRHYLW
# Text: According to particular aspects of the present invention, the alcohol group is essential for activity. Additionally, the activity of farnesol metabolites on neuronal voltage-gated L-type Ca^2+ channels was investigated. […] The Ca^2+ channel activity is expressed as % inhibition of KCl-induced intracellular Ca^2+ signaling in non-NGF differentiated PC12 cells loaded with fura-2 (see Materials and Methods under Example 2). The assayed molecules are: FPP—farnesyl pyrophosphate; FOH—all-trans farnesol; FCHO—all-trans farnesal; and FCOOH—all-trans farnesoic acid (prepared by Dr. McDougal).
# as §3
# Ca^2+ channel activity is expressed as % inhibition of KCl-induced intracellular Ca^2+ signaling in non-NGF treated PC12 cells loaded with fura-2.
# ADH [6] = settings: cited from earlier work
# [7] = biological target: T5, N-type Ca^2+ channel (α1B subunit) (Homo sapiens, UniProt Q00975); experiment: Patch-clamp on HEK cells transfected with human α1B (Cav2.2) subunits; assay type: cell-based; settings: at 5 min; Hp=−100 mV; 20 mM Ba^2+
# T5 construct: expressed in transfected cells; host or cells: HEK cells
# Description: FIGS. 4A and 4B show neuronal (α1D subunit) L-type Ca^2+ channel (Ca^2+ signaling in fura-2 loaded PC12 cells) (FIG. 4A); on neuronal (α1B subunit) N-type Ca^2+ channel (α1B-transfected HEK cells; as in Roullet, 1999) (FIG. 4B). Current-voltage relationship (IV) recording conditions were: holding potential (hp)=−100 mV; 20 mM Ba^2+. Inhibition of N-type currents was ˜90% at 5 min.
# Experiments (FIG. 4) using patch-clamp techniques and HEK cells transfected with human α1B (Cav2.2) subunits further indicate that, like farnesol, retinol also blocks N-type calcium channels. FIGS. 4A and 4B show, according to preferred aspects of the present invention, the effect of all-trans retinol on: neuronal (α1D subunit) L-type Ca^2+ channel (Ca^2+ signaling in fura-2 loaded PC12 cells) (FIG. 4A); an on neuronal (α1B subunit) N-type Ca^2+ channel (α1B-transfected HEK cells; as in Roullet, 1999) (FIG. 4B). IV recording conditions were: Hp=−100 mV; 20 mM Ba^2+. Inhibition of N-type currents was ˜90% at 5 min.
# [8] = biological target: T4, neuronal voltage-gated, L-type (Cav1.3) α1D subunit Ca^2+ channel; settings: PC12 cells; cited from earlier work
# [9] = biological target: T6, voltage-gated L-type Ca^2+ channels (Homo sapiens, UniProt Q13936); settings: cited from earlier work
# T6 construct: host or cells: arteries / vascular smooth muscle cells
reversibility of effect compared with farnesol (L-type Ca^2+ channel),"inhibition at 25 µM (L-type Ca^2+ channel; 25 μM, 30 min incubation, 60-min. wash-out, read-out: inhibition of arterial contraction still observed after wash-out) [%]",storage stability (Storage stability),recognition by microsomal FolDH (microsomal FolDH),substrate for ADH (ADH [4]),"activity on neuronal L-type Ca^2+ channels compared with all-trans farnesol ([5]; non-NGF PC12 cells, fura-2, FIG. 1 / FIG. 3)",Inhibition of N-type currents [7] [%],IC50 ([5]; read-out: IC50 on L-type Ca^2+ channels) [µM],SMILES,Predicted anti-seizure activity: long-acting (la) [1],substrate for monoamine oxidase [2],activity on KCl-induced arterial contraction [3],metabolism by class IV ADH (ADH [6]),"Predicted anti-seizure activity ([1]; based on effect on L-type Ca^2+ channels, CLogP and reversibility or ADH-FolDH recognition)",activity on neuronal L-type Ca^2+ channels (literature / prior studies) [8],activity on Ca^2+ channels / smooth muscle L-type channels (literature / prior studies) [9]
relatively less reversible,~80,–,–,–,–,–,–,"CC(C)=CCC/C(C)=C/CC/C(C)=C/CN [Farnesylamine, (2E,6E)-3,7,11-trimethyldodeca-2,6,10-trien-1-amine]",la,specific substrate for monoamine oxidase A,more potent inhibitor of arterial contractions than farnesol,–,–,–,–
less reversible,–,stable,not recognized by microsomal FolDH,very poor substrate for ADH,strongly inhibits,–,–,"CC(C)=CCC/C(C)=C/COc1cccc(O)c1 [Geranylresorcinol, (E)-3-(3,7-dimethylocta-2,6-dienyloxy)phenol]",la,–,strongly inhibits,–,–,–,–
significantly less reversible,–,–,–,–,–,~90,5,"CC1=C(/C=C/C(C)=C/C=C/C(C)=C/CO)C(C)(C)CCC1 [Retinol, (2E,4E,6E,8E)-3,7-dimethyl-9-(2,6,6-trimethylcyclohex-1-enyl)nona-2,4,6,8-tetraen-1-ol]",la,–,–,metabolized by class IV ADH,++,blocks efficiently,blocks efficiently
